Among the data in patent US8367681B2, “Pyrazolopyrimidines and related heterocycles as kinase inhibitors” (Cylene Pharmaceuticals, Inc., priority 2009, dated 2013) are IC50 values, retold here.

In one assay the target is T1, recombinant human CK2 (Homo sapiens, UniProt P68400).
T1 construct: purchased Upstate
Description: CK2 assay, cell-free, 33P-ATP filter plate. Format: biochemical. As for the experimental part:
Modulatory activity of compounds described herein was assessed in vitro in cell-free CK2 assays by the following method.
Test compounds in aqueous solution were added at a volume of 10 microliters, to a reaction mixture comprising 10 microliters Assay Dilution Buffer (ADB; 20 mM MOPS, pH 7.2, 25 mM beta-glycerolphosphate, 5 mM EGTA, 1 mM sodium orthovanadate and 1 mM dithiothreitol), 10 microliters of substrate peptide (RRRDDDSDDD SEQ ID NO.: 4, dissolved in ADB at a concentration of 1 mM), 10 microliters of recombinant human CK2 (25 ng dissolved in ADB; Upstate). Reactions were initiated by the addition of 10 microliters of ATP Solution (90% 75 mM MgCl2, 75 micromolar ATP dissolved in ADB; 10% [γ-^33P]ATP (stock 1 mCi/100 μl; 3000 Ci/mmol (Perkin Elmer) and maintained for 10 minutes at 30 degrees C. The reactions were quenched with 100 microliters of 0.75% phosphoric acid, then transferred to and filtered through a phosphocellulose filter plate (Millipore). After washing each well 5 times with 0.75% phosphoric acid, the plate was dried under vacuum for 5 min and, following the addition of 15 ul of scintillation fluid to each well, the residual radioactivity was measured using a Wallac luminescence counter.

In a further assay the target is recombinant PIM-1 (Homo sapiens, UniProt P11309). Description: PIM-1 kinase assay, 33P-ATP filter plate. Format: biochemical. Particulars: recombinant PIM-1, 15 uM ATP; read-out: PIM1: IC50. As to the method: The following procedure was used to assay the PIM-1 kinase activity of compounds of the invention. Other methods for assaying PIM-1 and other PIM kinases, as well as methods to assay for activity against the various kinases in FIG. 1, are known in the art.
recombinant PIM-1, sequence (P11309 whole entry): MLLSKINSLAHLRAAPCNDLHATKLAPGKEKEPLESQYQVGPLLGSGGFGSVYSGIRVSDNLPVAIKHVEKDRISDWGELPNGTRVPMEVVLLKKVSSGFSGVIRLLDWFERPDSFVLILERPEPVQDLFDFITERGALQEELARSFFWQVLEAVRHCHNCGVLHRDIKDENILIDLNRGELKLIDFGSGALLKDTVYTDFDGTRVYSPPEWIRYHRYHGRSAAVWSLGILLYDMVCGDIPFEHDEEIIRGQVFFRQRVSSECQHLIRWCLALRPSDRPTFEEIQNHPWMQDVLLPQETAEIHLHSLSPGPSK
In a final reaction volume of 50 ul, recombinant PIM-1 (1 ng) was incubated with 12 mM MOPS pH 7.0, 0.4 mM EDTA, glycerol 1%, brij 35 0.002%, 2- mercaptoethanol 0.02%, BSA 0.2 mg/ml, 100 uM KKRNRTLTK SEQ ID NO.: 5, 10 mM MgAcetate, 15 uM ATP, [γ-^33P-ATP] (specific activity approx. […]), DMSO 4% and test inhibitor compound at the required concentration. The reaction was initiated by the addition of the Magnesium ATP mixture. After 40 min incubation at 23° C., the reactions were quenched by the addition of 100 ul 0.75% Phosphoric acid, and the labeled peptide collected by filtration through a phosphocellulose filter plate. The plate was washed 4 times with 0.075% phosphoric acid (100 ul per well) and then, after the addition of scintillation fluid (20 ul per well), the counts were measured by a scintillation counter.

The subject of assay [1] is PC-3 human prostatic cancer cells. Description: Alamar Blue (AB) cell proliferation assay, PC3. The assay is classed as cell-based. Particulars: PC-3, 96 h, four days with compound. As for the experimental part:
(§1) A representative cell-proliferation assay protocol using Alamar Blue dye (stored at 4° C., use 20 ul per well) is described hereafter.
(§2) 96-well Plate Setup and Compound Treatment • a. Split and trypsinize cells. • b. Count cells using hemocytometer. • c. Plate 4,000-5,000 cells per well in 100 μl of medium and seed into a 96-well plate according to the following plate layout. Add cell culture medium only to wells B10 to B12. Wells B1 to B9 have cells but no compound added.
(§3) • d. Add 100 μl of 2× drug dilution to each well in a concentration shown in the plate layout above. At the same time, add 100 μl of media into the control wells (wells B10 to B12). Total volume is 200 μl/well. • e. Incubate four (4) days at 37° C., 5% CO2 in a humidified incubator. • f. Add 20 μl Alamar Blue reagent to each well. • g. Incubate for four (4) hours at 37° C., 5% CO2 in a humidified incubator. • h. Record fluorescence at an excitation wavelength of 544 nm and emission wavelength of 590 nm using a microplate reader.
(§4) In the assays, cells are cultured with a test compound for approximately four days, the dye is then added to the cells and fluorescence of […] dye is detected after approximately four hours. Different types of cells can be utilized in the assays (e.g., HCT-116 human colorectal carcinoma cells, PC-3 human prostatic cancer cells, MDA-MB231 human breast cancer cells, K-562 human chronic myelogenous leukemia (CML) cells, MiaPaca human pancreatic carcinoma cells, MV-4 human acute myeloid leukemia cells, and BxPC3 human pancreatic adenocarcinoma cells).
For orientation: The colour change of resazurin is a common sign of viable cells or microbes.

The subject of assay [2] is MDA-MB231 human breast cancer cells. Description: Alamar Blue (AB) cell proliferation assay, MDAMB231. The assay is classed as cell-based. Particulars: MDA-MB-231, 96 h, four days with compound. As to the method:
as §1, §2, §3, §4

For the next assay, the system named is P21_MDAMB231. The assay can be described thus: P21_MDAMB231 cellular assay. The assay is classed as cell-based. The settings on record: Homo sapiens, MDA-MB-231; MDAMB231 cells.
Assay [3] has as its system MV-4 human acute myeloid leukemia cells. The assay can be described thus: Alamar Blue (AB) cell proliferation assay, MV-4-11. Particulars: MV4-11, 96 h, MV-4-11 cells, four days with compound. Format: cell-based. As to the method:
as §1, §2, §3, §4

For assay [4], the system named is MiaPaca human pancreatic carcinoma cells. The assay can be described thus: Alamar Blue (AB) cell proliferation assay, MiaPaCa. Format: cell-based. Particulars: MIA PaCa-2, 96 h, four days with compound. As for the experimental part:
as §1, §2, §3, §4

In assay [5] the test system is K-562 human chronic myelogenous leukemia (CML) cells. The assay can be described thus: Alamar Blue (AB) cell proliferation assay, K-562. The assay is classed as cell-based. The settings on record: K562, 96 h, K-562 cells, four days with compound. As for the experimental part:
as §1, §2, §3, §4

The test system of another assay is P21_BxPC3. Description: P21_BxPC3 cellular assay. The assay is classed as cell-based. The settings on record: Homo sapiens, BXPC-3; BxPC3 cells.

T1 sequence (P68400 whole entry): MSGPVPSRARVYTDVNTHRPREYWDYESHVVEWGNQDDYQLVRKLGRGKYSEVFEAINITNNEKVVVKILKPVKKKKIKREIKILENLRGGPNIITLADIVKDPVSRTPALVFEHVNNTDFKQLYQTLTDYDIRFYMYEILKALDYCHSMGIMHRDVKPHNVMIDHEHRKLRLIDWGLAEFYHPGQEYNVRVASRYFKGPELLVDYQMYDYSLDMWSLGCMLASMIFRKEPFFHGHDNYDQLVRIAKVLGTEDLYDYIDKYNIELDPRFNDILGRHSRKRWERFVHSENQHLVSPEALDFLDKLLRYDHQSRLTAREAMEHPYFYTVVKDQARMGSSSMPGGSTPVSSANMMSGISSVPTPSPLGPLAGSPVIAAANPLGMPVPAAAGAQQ
T1 sequence (P67870 whole entry partner): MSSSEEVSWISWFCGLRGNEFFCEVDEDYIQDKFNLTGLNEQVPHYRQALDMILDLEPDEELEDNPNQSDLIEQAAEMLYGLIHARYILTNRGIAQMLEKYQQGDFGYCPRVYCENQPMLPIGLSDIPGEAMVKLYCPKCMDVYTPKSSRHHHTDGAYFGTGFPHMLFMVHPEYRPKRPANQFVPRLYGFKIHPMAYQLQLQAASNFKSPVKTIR

In general, IC50 refers to the concentration at which inhibition is half-maximal. With `CC(C)(C)c1cccc(Nc2ccn3ncc(/C=C4/SC(=O)NC4=O)c3n2)c1`, the results for the IC50 on recombinant human CK2 and at recombinant PIM-1 were 79 nM and 107 nM, respectively.

With `CN1CCN(c2ccc(Nc3ccn4ncc(/C=C5/NC(=O)NC5=O)c4n3)cc2)CC1`, the IC50 at recombinant human CK2 is 57 nM; at recombinant PIM-1, 537 nM.

With `CN(C)CCOc1ccc(Nc2ccn3ncc(/C=C4\NC(=O)NC4=O)c3n2)cc1`, the IC50 is 58 nM on recombinant human CK2 and 431 nM at recombinant PIM-1.

Regarding `CC(C)CNc1ccn2ncc(/C=C3\NC(=O)NC3=O)c2n1`, the half-maximal inhibitory concentration (IC50) was 35 nM on recombinant human CK2, 6550 nM in assay [1] and 346 nM on recombinant PIM-1.

Take `CC(C)Nc1ccn2ncc(/C=C3\NC(=O)NC3=O)c2n1`: the IC50 stood at 574 nM at recombinant human CK2 and 1570 nM at recombinant PIM-1.

With `O=C1NC(=O)/C(=C/c2cnn3ccc(NCCF)nc23)N1`, the IC50 at recombinant human CK2 was 2150 nM; at recombinant PIM-1, 2380 nM.

As for `O=C1NC(=O)/C(=C\c2cnn3ccc(Nc4cccc(Cn5ccnc5)c4)nc23)N1`, the values for the IC50 on recombinant human CK2 and on recombinant PIM-1 were 120 nM and 61 nM, respectively.

Consider `O=C1NC(=O)/C(=C/c2cnn3ccc(Nc4ccc(Cl)cc4)nc23)N1`, for which the IC50 on recombinant human CK2 was 20 nM; on recombinant PIM-1, 194 nM.

For the molecule `CN1CCCN(c2ccn3ncc(/C=C4\SC(=O)NC4=O)c3n2)CC1`, the IC50 on recombinant human CK2 is 130 nM; at recombinant PIM-1, 126 nM.

On to `O=C1NC(=O)/C(=C\c2cnn3ccc(Nc4cccc(Cl)c4)nc23)S1`, for which the IC50 was 110 nM in assay [2]; 3 nM at recombinant human CK2; 3040 nM in assay [1]; 680 nM in the assay with P21_MDAMB231; 271 nM in assay [3]; 52 nM on recombinant PIM-1. Besides, the half-inhibitory concentration (IC50) stood at 285 nM in [4], 132 nM in [5] and 450 nM in the assay on P21_BxPC3.

Regarding `O=C1NC(=O)/C(=C/c2cnn3ccc(-c4ccccc4F)nc23)N1`, the 50% inhibitory concentration (IC50) worked out at 179 nM on recombinant human CK2 and 3010 nM at recombinant PIM-1.

On to `O=C1NC(=O)/C(=C\c2cnn3ccc(-c4cccc(C(=O)O)c4)nc23)S1`, for which the IC50 in assay [2] was above 10000 nM; on recombinant human CK2, 9 nM; in assay [1], above 30000 nM; in [3], above 1000 nM; on recombinant PIM-1 it was 688 nM; in [4], above 10000 nM. For the same molecule, in assay [5], the IC50 was above 10000 nM.

As to `CN1CCN(c2cccc(Nc3ccn4ncc(/C=C5\NC(=O)NC5=O)c4n3)c2)CC1`, the IC50 on recombinant human CK2 was determined as 247 nM; at recombinant PIM-1, 518 nM.

As for `Cc1nccn1-c1cccc(Nc2ccn3ncc(/C=C4\SC(=O)NC4=O)c3n2)c1`, the IC50 is above 10000 nM in assay [2]; 22 nM on recombinant human CK2; 5380 nM in assay [3]; 4 nM on recombinant PIM-1; above 10000 nM in [4]; above 10000 nM in assay [5].

On to `O=C1NC(=S)S/C1=C\c1cnn2ccc(-c3ccccc3F)nc12`, for which the values for the IC50 (on recombinant human CK2; in assay [1]; on recombinant PIM-1) were 15 nM, above 10000 nM and 25 nM, respectively.

Consider `CC(C)(C)c1cccc(Nc2ccn3ncc(/C=C4/NC(=O)NC4=O)c3n2)c1`, for which the IC50 at recombinant human CK2 was found to be 210 nM; on recombinant PIM-1, 890 nM.

Take `CC(C)Oc1cccc(Nc2ccn3ncc(/C=C4\NC(=O)NC4=O)c3n2)c1`: the IC50 at recombinant human CK2 amounted to 23 nM; in assay [1], 9710 nM; on recombinant PIM-1 it was 1040 nM.

Regarding `Nc1ccn2ncc(/C=C3\NC(=O)NC3=O)c2n1`, the IC50 was above 5000 nM on recombinant human CK2 and 158 nM on recombinant PIM-1.

In the case of `COC(=O)c1cccc(-c2ccn3ncc(/C=C4/SC(=O)NC4=O)c3n2)c1`, the 50% inhibitory concentration (IC50) in assay [2] was above 10000 nM; at recombinant human CK2, 80 nM; in assay [1], above 30000 nM; in the assay with P21_MDAMB231 it was 3160 nM; at recombinant PIM-1 it was 91 nM; in assay [4], above 10000 nM. Moreover, the figures for the concentration for half-maximal inhibition (IC50) (in assay [5]; with P21_BxPC3) were 51 nM and 5680 nM, respectively.

As for `O=C1NC(=S)S/C1=C/c1cnn2ccc(Nc3cccc(Cl)c3)nc12`, the 50% inhibitory concentration (IC50) in [2] was above 10000 nM; on recombinant human CK2, 6 nM; in assay [1] it was 842 nM; in the assay with P21_MDAMB231, 300 nM; in [3], above 30 nM; on recombinant PIM-1, 18 nM. In addition, the IC50 in assay [4] was above 10000 nM; in [5], 153 nM; in the assay with P21_BxPC3, 2660 nM.

Consider `CN1CCCN(c2ccn3ncc(/C=C4\NC(=O)NC4=O)c3n2)CC1`, for which the values for the IC50 on recombinant human CK2 and at recombinant PIM-1 were 1970 nM and 3530 nM, respectively.

Regarding `O=C1NC(=O)/C(=C/c2cnn3ccc(-c4ccccc4F)nc23)S1`, the results for the half-inhibitory concentration (IC50) (at recombinant human CK2; in assay [1]; at recombinant PIM-1) were 41 nM, above 10000 nM and 240 nM, respectively.

For the molecule `CCN(CC)Cc1cccc(Nc2ccn3ncc(/C=C4\NC(=O)NC4=O)c3n2)c1`, the half-maximal inhibitory concentration (IC50) is 460 nM on recombinant human CK2 and 373 nM at recombinant PIM-1.

`O=C1NC(=O)/C(=C/c2cnn3ccc(N4CCCCC4)nc23)N1`: the IC50 on recombinant human CK2 was determined as 145 nM; at recombinant PIM-1, 431 nM.

In the case of `O=C1NC(=O)/C(=C\c2cnn3ccc(Nc4cccc(Cl)c4)nc23)N1`, the IC50 in assay [2] is 768 nM; at recombinant human CK2, 9 nM; in [1], 143 nM; with P21_MDAMB231, 100 nM; in assay [3], above 30 nM; at recombinant PIM-1 it was 427 nM. The IC50 in assay [4] came to 108 nM; in [5], 153 nM; with P21_BxPC3, 540 nM.

`O=C1NC(=O)/C(=C/c2cnn3ccc(Nc4cccc(OCCN5CCOCC5)c4)nc23)N1`: the results for the IC50 on recombinant human CK2 and on recombinant PIM-1 were 303 nM and 1250 nM, respectively.

In the case of `O=C1NC(=O)/C(=C/c2cnn3ccc(Nc4ccc(Cl)cc4)nc23)S1`, the IC50 on recombinant human CK2 was 7 nM.

Take `CN1C(=O)NC(=O)/C1=C/c1cnn2ccc(Nc3cccc(Cl)c3)nc12`: the concentration for half-maximal inhibition (IC50) came to 375 nM on recombinant human CK2 and 239 nM at recombinant PIM-1.

Turning to `COC(=O)c1cccc(-c2ccn3ncc(/C=C4/SC(=S)NC4=O)c3n2)c1`, the IC50 in assay [2] was 8660 nM; on recombinant human CK2, 13 nM; in assay [1] it was 3910 nM; in assay [3] it was 11 nM; at recombinant PIM-1 it was 21 nM; in assay [4] it was above 10000 nM. Besides, in assay [5], the 50% inhibitory concentration (IC50) was above 10000 nM.
